Test results published in PMC10714400, “Antimicrobial Peptide–Peptoid Hybrids with and without Membrane Disruption” (ACS Infectious Diseases, 2023).
Where a SMILES comes first, the peptide text is derived from it. [ ]: non-standard residue; d: D form. Nleu = CC(C)CNCC(=O)O; Nlys = NCCCCNCC(=O)O

Tests used:
[1] = test system: P. aeruginosa PAO1; assay: Transmission electron microscopy (TEM); assay type: cell-based, Pseudomonas aeruginosa; settings: P. aeruginosa PAO1, 10 × MIC, […] MH at pH 8.5, 2 h at 37 °C
Procedure: Scale bars are 500 nm and 1 μm. Red arrows: membrane perturbations. Blue arrows: intracellular aggregation. Yellow arrows: empty area within the cell.
(§1) Just before the samples were further prepared for the microscopy, surviving bacteria were quantified by plating 10-fold dilutions of samples in sterilized normal saline (NaCl 0.9%) on LB agar plates. […] The assay was performed in triplicate. Each bacteria sample was centrifuged at 12,000 rpm for 3 min, and the supernatant was discarded. The samples were then further processed and imaged using our previously described protocol.[64]

[2] = test system: P. aeruginosa PAO1; assay: Bacterial count after treatment, before TEM sample preparation; assay type: cell-based, Pseudomonas aeruginosa; settings: P. aeruginosa PAO1, […] MH pH 8.5, 10x MIC
Procedure: as §1
8. Transmission electron microscopy (TEM)
Table S4: Bacterial counts, 2 hours after treatment, before TEM sample preparation. Data represents triplicates.
Bacteria count after treatment at 10x MIC and 2 h of incubation at 37 °C
Control (non-treated cells) 1 × 10^8 CFU (100)

Compound	TEM micrographs, changes in treated bacteria [1]	Bacteria count after treatment at 10x MIC and 2 h of incubation at 37 °C (% of control) [2]
CC(C)C[C@H](NC(=O)CN(CC(C)C)C(=O)[C@H](CC(C)C)NC(=O)CN(CCCCN)C(=O)[C@H](CC(C)C)NC(=O)CN(CC(C)C)C(=O)[C@H](CCCCN)NC(=O)CN(CC(C)C)C(=O)[C@H](CC(C)C)NC(=O)CN(CCCCN)C(=O)[C@@H](N)CCCCN)C(N)=O [EB9, KkLlKlLkLlL] (H-K[Nlys]L[Nleu]K[Nleu]L[Nlys]L[Nleu]L-NH2)	aggregation of intracellular components as the major effect	0.01 % of control
H-KKLLKLLKLLL-NH2 [ln65, reference compound]	strong membrane-disruptive activity	0.01 % of control
